# Laboratory results published in US20160221974A1, “SODIUM CHANNEL MODULATORS FOR THE TREATMENT OF PAIN AND DIABETES” (CHROMOCELL CORPORATION, priority 2013, published 2016).
# Tests used:
# hNaV1.7 = biological target: T1, hNaV1.7 (Homo sapiens, UniProt Q15858); assay: FDSS Membrane Potential In-Vitro Assay; assay type: cell-based; settings: stimulation with veratridine and scorpion venom, read-out: NaV1.7 IC50
# T1 construct: expressed in transfected cells
# NaV1.7 = biological target: T2, NaV1.7 (Homo sapiens, UniProt Q15858); assay: Patchliner Electrophysiological In-Vitro Assay (NaV1.7); assay type: cell-based; settings: Patchliner patch clamp, HEK293, holding at V1/2
# T2 construct: expressed in transfected cells
# T2 sequence (Q15858 whole entry): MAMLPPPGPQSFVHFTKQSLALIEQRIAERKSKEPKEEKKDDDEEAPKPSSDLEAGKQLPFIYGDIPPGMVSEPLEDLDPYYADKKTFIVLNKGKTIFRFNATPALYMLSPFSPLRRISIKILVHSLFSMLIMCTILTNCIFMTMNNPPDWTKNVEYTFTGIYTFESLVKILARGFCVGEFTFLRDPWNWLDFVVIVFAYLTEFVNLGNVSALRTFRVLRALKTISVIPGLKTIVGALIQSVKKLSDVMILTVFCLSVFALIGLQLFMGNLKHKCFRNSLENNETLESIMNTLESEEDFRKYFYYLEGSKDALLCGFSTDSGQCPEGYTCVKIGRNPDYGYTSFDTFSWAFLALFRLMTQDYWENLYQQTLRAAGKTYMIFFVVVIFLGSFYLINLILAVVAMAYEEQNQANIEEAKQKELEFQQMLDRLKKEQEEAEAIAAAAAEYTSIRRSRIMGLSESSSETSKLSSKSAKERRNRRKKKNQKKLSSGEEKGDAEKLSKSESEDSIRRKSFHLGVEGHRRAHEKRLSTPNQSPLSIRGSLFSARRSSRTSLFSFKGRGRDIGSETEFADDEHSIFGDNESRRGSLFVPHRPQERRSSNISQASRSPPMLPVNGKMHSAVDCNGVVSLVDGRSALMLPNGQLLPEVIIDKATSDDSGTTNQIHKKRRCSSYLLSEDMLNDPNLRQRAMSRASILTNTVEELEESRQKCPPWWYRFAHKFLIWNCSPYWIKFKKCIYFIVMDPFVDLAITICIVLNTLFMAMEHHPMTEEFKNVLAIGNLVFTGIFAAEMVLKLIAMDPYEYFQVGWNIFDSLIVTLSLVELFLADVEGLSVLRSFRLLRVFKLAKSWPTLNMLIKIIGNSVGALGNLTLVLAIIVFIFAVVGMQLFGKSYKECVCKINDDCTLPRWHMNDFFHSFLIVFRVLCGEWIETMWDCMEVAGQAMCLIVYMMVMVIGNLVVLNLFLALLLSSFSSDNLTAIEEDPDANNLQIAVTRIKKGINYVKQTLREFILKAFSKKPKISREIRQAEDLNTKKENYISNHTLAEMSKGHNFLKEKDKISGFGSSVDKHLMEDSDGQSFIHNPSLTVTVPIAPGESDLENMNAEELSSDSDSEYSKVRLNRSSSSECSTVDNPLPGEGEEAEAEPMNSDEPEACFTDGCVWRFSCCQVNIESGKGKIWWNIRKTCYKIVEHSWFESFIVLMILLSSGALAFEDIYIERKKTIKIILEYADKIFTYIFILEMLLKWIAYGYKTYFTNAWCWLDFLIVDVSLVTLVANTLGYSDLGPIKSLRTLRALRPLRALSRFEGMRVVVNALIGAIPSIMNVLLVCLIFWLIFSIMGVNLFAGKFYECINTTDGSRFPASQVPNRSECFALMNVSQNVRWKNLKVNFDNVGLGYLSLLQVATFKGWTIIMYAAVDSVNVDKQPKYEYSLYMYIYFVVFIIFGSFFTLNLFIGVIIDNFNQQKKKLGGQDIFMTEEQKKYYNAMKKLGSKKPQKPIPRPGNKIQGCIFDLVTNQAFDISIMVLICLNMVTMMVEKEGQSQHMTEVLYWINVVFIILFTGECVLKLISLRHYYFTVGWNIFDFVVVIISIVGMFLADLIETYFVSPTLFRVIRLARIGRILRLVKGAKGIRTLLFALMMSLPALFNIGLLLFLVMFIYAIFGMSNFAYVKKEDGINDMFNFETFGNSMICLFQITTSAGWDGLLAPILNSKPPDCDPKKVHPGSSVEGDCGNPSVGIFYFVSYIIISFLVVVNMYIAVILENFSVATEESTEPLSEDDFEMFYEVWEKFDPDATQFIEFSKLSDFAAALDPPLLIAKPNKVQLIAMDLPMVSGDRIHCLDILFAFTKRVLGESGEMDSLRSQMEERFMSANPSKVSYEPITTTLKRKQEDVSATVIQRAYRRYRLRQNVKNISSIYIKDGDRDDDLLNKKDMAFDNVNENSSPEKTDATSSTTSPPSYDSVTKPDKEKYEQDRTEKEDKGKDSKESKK
# T2 sequence (Q07699 19-218 partner): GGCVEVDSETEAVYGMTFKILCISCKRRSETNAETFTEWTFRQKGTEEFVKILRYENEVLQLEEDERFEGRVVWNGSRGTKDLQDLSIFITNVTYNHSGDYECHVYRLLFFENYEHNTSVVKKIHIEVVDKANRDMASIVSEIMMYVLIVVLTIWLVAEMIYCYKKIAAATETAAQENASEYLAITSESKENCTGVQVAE
# T2 sequence (O60939 30-215 partner): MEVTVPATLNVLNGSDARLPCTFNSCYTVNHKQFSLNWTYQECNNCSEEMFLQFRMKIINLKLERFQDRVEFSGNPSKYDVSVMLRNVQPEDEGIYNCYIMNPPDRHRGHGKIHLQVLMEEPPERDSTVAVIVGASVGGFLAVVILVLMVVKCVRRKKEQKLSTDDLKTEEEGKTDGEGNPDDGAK
# Description: In vitro assays were performed in recombinant cell line that stably express a heterotrimeric protein of interest from an introduced nucleic acid encoding the alpha subunit (hNav1.7, SCN9A), the beta subunit (SCNB1) and the beta subunit (SCNB2). The cell line was engineered using Human Embryonic Kidney 293 cells as host background. Additional cell lines stably expressing recombinant Nav1.7 or Nav1.5 alpha subunit alone or in combination with various beta subunits can also be used in in-vitro assays.
# (§1) The recording of sodium current from stable HEK293 cell lines expressing NaV1.7 or NaV1.5 was done on a Patchliner® instrument, Nanion Technologies. The Patchliner® is a fully automated bench-top patch clamp platform and can record simultaneously from up to eight single cells with GΩ seals.
# (§2) For patch-clamp experiments, cells were grown under standard culturing conditions in Dulbecco's Modified Eagles medium supplemented with 10% fetal bovine serum, glutamine and HEPES. Cells were harvested and kept in suspension for up to 4 hours with no significant change in quality or ability to patch. Whole cell patch clamp recordings were conducted according to Nanion's standard procedure for the Patchliner®. Experiments were conducted at room temperature.
# (§3) Voltage protocols were designed to establish: 1) peak current amplitude (Imax), 2) test potential (Vmax) and 3) half-inactivation potential (V1/2) for each of the eight individual cells. To determine V1/2, a standard steady-state inactivation protocol was executed using a series of fifteen 500 ms depolarizing pre-pulses in 10 mV increments (starting at −130 mV) and immediately followed by a 10 ms test pulse to Vmax. To estimate test compound affinity to the inactivated state of sodium channel (Ki), the holding potential for each cell was set automatically to the V1/2 calculated from a steady-state inactivation data. The current was activated with the following voltage protocol: holding at V1/2 for 2-5 seconds, return to the −120 mV for 5-10 ms to relieve fast inactivation, stepping to test potential (Vmax) for 10-20 ms. This voltage protocol was repeated every 10 seconds to establish the baseline with 2-3 buffer additions followed by the test compound addition. The dose-dependent inhibition was analyzed using Nanion's Data Analysis Package.
# CYP3A4 = biological target: T3, CYP3A4 (Homo sapiens, UniProt P08684); assay: In-Vitro Cytochrome P450 (CYP450) Inhibition Assay (Vivid CYP450); assay type: in vitro ADME; settings: CYP3A4 enzyme complex (Vivid CYP450, Invitrogen), 6 μM test concentration
# T3 construct: purchased Invitrogen
# T3 sequence (P08684 2-503 limits assumed): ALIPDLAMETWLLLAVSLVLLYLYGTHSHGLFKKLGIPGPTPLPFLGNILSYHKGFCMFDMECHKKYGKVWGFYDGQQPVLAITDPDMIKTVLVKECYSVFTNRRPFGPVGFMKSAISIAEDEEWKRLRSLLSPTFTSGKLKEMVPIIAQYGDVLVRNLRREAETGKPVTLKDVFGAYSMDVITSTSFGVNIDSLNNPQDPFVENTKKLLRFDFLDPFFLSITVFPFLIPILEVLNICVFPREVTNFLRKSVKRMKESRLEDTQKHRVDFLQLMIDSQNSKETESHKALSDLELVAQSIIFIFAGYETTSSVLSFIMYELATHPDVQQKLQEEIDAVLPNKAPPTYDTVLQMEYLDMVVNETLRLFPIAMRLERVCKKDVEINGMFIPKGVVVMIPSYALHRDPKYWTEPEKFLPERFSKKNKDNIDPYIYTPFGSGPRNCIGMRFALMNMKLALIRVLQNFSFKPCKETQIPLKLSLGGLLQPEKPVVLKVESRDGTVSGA
# Description: We evaluated interaction of drug candidates with cytochrome P450 enzymes which are a major determinant of drug clearance via oxidative metabolism using a high throughput compatible, fluorescence based CYP450 screening assay (Vivid® CYP450, Invitrogen) according to manufacturer's directions.
# In brief, test compounds at four different concentrations (μM—6.0, 2.0, 0.7, 0.2), a positive control (Ketoconazole) and a solvent control were incubated at room temperature in unique wells of a 96-well microtiter plate with CYP3A4 enzyme complex for 20 minutes. A pre-read fluorescence (Ex−485 nm/Em−530 nm) was measured at the start of the incubation using a Tecan Safire^2 microplate reader-monochromator to determine background fluorescence. At the end of the incubation period, enzyme substrate and co-enzyme were added and the reaction was kinetically monitored for 1 hour by measuring fluorescence every minute. Effect of test compounds on inhibition of CYP3A4 metabolism of provided substrate was determined by calculating the ratio of the effective reaction rate in presence of test compound to that in the absence of inhibitor.
# [1] = tested on: Formalin Test (pain behaviors); assay: Formalin Test (pain behaviors); assay type: in vivo, rat; settings: relative to vehicle control
# [2] = tested on: Partial Sciatic Nerve Ligation (PSNL) model; assay: Partial Sciatic Nerve Ligation (PSNL) model, behavioral tests; assay type: in vivo, male Sprague-Dawley rats
# From the text: 250-350 g male Sprague-Dawley rats from appropriate animal resources were anesthetized with 2.5% isoflurane. A hind leg was shaved, and the skin was sterilized with 0.5% iodine and 75% alcohol. All surgical instruments were sterilized before surgery and between animals. An incision (1 cm) was made at the middle of the thigh in parallel with the muscle and sciatic nerve distribution. The muscle was exposed and dissected at the joint of two muscles (biceps femoris) indicated by the light colored (white) fascia line. The sciatic nerve was just beneath the muscle and was hooked out using an 18-20 G feeding needle (90 degree curved); the sciatic nerve was flat on the feeding needle and approximately one-half the diameter of the nerve is tightly ligated with 7-0 silk suture. A response of the injured leg twitch indicates the success of ligation. After checking hemostasis, bupivicaine 0.1-0.2 ml (0.125%) was given at the incision area, the muscle and the adjacent fascia are closed with 5-0 absorbable sutures. The skin was sutured with absorbable suture and tissue glue. The control group using sham surgery animals (about 8-10 animals) underwent the same surgical procedure but with no nerve ligation. Animals were returned to their home cage after recovery from anesthesia.
# The analgesic effect of the test compound was expressed as a percent recovery (% Recovery) relative to the sham control group baseline and calculated according to the formula:
# % Recovery=100%−{[(sham mean−test compound mean)/(sham mean−vehicle mean)]×100%}
# wherein “sham mean” refers to average score in the sham-operated group; “test compound mean” refers to average score in the PSNL-group (animals with partial sciatic nerve ligation) or diabetic group (animals treated with STZ) treated with a test compound; “vehicle mean” refers to average score in the PSNL-group or diabetic group treated with vehicle only. The above formula was used to obtain data for the following in vivo behavioral tests.
# The following behavioral tests were conducted (i.e., plantar test, paw pressure test, and von Frey test) started on day 3 and thereafter once weekly following surgery or use of a diabetic inducer. […]
# (§4) Rats were placed on the glass surface of a thermal testing apparatus (Model 336, IITC/Life Science Instruments, Woodland Hills, Calif.) and were allowed to acclimate for 10 min before testing on the glass surface at room temperature. […] The paw withdrawal latency was recorded by a digital timer. The thermal threshold was determined as the mean withdrawal latency from two to three consecutive trials of both hindpaws. […]
# Animals were placed under clear plastic boxes above a wire mesh floor, which allowed full access to the paws. […] Mechanical paw withdrawal thresholds (PWTs) were measured with the up-down testing paradigm. […]
# [3] = tested on: streptozotocin (STZ)-induced diabetic model; assay: Streptozotocin (STZ)-Induced Model of Diabetic Neuropathy, behavioral tests; assay type: in vivo, male Sprague-Dawley rats; settings: 30 mg/kg, measured 30 minutes post dose
# Description: 250-350 g male Sprague-Dawley rats from appropriate animal resources were used. Type I diabetes was induced by a single injection, (intraperitoneally, intravenously or intramuscularly) of 50-100 mg/kg of streptozotocin (STZ, Sigma Chemicals, St. Louis, Mo. or VWR) freshly dissolved in sodium citrate (0.01 M, pH 4.5). Sham animals were given either saline or same vehicle injection. Following a wait time of about two days, inducement of diabetes was confirmed in STZ-injected rats by measuring the plasma glucose concentrations in blood samples from the tail vein after a fast of 6 hours. […] Other parameters (water intake, food intake, and bodyweight) were monitored before the treatment with a test compound and after the cessation of the treatment.
# The analgesic effect of the test compound was expressed as a percent recovery (% Recovery) relative to the sham control group baseline and calculated according to the formula: […]
# as §4
# NaV1.5 = biological target: T4, NaV1.5 (Homo sapiens, UniProt Q14524); assay: Patchliner Electrophysiological In-Vitro Assay (NaV1.5); assay type: cell-based; settings: Patchliner patch clamp, HEK293
# T4 construct: expressed in transfected cells
# T4 sequence (Q14524 whole entry): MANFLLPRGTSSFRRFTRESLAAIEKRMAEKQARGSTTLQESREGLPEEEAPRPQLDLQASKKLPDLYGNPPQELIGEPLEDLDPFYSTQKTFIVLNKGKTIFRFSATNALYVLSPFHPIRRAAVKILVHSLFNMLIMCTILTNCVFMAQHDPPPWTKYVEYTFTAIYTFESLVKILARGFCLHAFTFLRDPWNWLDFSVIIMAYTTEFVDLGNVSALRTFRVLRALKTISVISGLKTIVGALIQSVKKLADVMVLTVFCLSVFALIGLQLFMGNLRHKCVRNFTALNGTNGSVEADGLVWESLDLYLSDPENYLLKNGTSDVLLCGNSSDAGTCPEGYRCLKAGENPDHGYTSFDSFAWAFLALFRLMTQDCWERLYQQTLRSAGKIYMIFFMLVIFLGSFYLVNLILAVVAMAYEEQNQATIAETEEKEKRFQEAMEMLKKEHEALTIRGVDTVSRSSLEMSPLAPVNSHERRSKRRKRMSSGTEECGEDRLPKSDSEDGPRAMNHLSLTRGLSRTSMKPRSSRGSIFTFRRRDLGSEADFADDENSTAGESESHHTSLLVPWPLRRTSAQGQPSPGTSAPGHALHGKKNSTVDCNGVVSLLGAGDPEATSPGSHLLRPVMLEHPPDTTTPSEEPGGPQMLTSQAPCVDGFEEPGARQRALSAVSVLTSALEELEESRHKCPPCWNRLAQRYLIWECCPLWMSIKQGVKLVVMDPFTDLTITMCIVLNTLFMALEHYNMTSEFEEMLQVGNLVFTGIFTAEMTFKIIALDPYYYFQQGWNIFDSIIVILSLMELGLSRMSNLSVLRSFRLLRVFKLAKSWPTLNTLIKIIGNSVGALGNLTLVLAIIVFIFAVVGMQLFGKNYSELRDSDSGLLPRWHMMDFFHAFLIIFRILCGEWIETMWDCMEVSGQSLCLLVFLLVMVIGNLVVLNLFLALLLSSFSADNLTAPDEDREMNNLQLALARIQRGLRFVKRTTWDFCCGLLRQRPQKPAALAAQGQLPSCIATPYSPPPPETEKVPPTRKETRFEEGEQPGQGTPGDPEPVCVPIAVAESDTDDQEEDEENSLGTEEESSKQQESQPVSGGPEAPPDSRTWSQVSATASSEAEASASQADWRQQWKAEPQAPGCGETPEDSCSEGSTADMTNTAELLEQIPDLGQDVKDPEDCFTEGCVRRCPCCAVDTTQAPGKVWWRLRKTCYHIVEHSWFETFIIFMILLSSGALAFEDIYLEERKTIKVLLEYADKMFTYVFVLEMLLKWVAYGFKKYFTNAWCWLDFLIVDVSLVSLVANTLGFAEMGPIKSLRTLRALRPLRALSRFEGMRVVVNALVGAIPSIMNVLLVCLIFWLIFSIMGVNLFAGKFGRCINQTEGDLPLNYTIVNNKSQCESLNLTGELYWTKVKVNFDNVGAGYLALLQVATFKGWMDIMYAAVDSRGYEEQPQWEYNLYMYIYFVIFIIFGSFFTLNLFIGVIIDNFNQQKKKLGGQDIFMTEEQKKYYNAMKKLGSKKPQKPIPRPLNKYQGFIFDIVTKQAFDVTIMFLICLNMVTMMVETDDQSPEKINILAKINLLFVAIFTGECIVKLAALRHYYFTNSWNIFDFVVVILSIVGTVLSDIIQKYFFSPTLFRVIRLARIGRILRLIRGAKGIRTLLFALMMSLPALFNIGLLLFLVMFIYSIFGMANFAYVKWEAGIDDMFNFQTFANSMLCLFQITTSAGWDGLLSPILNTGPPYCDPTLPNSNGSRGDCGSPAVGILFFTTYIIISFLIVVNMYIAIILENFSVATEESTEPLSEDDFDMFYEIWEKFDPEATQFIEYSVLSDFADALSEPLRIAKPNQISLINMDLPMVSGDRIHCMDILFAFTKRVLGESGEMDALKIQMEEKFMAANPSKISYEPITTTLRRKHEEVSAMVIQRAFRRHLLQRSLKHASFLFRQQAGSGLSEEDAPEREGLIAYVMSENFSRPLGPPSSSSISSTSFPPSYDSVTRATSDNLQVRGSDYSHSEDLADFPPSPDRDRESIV
# Description: as §1, §2, §3
# [4] = 150 μL of 1 or 2% w/v solution, topical route
# T1 sequence (Q15858 whole entry): as the sequence (Q15858 whole entry) above
# T1 sequence (Q07699 19-218 partner): as the sequence (Q07699 19-218 partner) above
# T1 sequence (O60939 30-215 partner): as the sequence (O60939 30-215 partner) above
Structure (SMILES),IC50 (hNaV1.7),IC50 (NaV1.7),"inhibition at 1 hour, 6 µM (CYP3A4)",IC50 (NaV1.5),other results
"O=C(O)CCNCCCc1cc(Cl)ccc1Oc1cc(F)c(S(=O)(=O)Nc2ncns2)cc1Cl [Compound 12, 3-((3-(2-(4-(N-(1,2,4-thiadiazol-5-yl)sulfamoyl)-2-chloro-5-fluorophenoxy)-5-chlorophenyl)propyl)amino)propanoic acid]",< 130 nM,< 100 nM,50 to 100%,,"reduction in pain response (formalin assay phase 2) [1, 4]: 29-43%; reduction in pain response (formalin assay, phase 1) [1, 4]: 13-24%"
"C#CCN(CCCc1cc(Cl)ccc1Oc1cc(F)c(S(=O)(=O)Nc2nccs2)cc1Cl)CC(=O)O [Compound 54, 2-((3-(5-chloro-2-(2-chloro-5-fluoro-4-(N-(thiazol-2-yl)sulfamoyl)phenoxy)phenyl)propyl)(prop-2-yn-1-yl)amino)acetic acid]",,,,,"effect in the tactile allodynia test ([2]; oral route, relative to vehicle control, measured 30 minutes post dose): no significant effect"
"O=C(O)CCNCCCc1cc(Cl)ccc1Oc1cc(F)c(S(=O)(=O)Nc2cscn2)cc1Cl [Compound 15, 3-((3-(5-chloro-2-(2-chloro-5-fluoro-4-(N-(thiazol-4-yl)sulfamoyl)phenoxy)phenyl)propyl)amino)propanoic acid]",130 to 1000 nM,< 100 nM,0 to 25%,,effect in the tactile allodynia test [3]: no significant effect
"O=C(O)CCNC(=O)c1cc(-c2cc(Cl)ccc2Oc2cc(F)c(S(=O)(=O)Nc3ncns3)cc2Cl)ccn1 [Compound 1, 3-(4-(2-(4-(N-(1,2,4-thiadiazol-5-yl)sulfamoyl)-2-chloro-5-fluorophenoxy)-5-chlorophenyl)picolinamido)propanoic acid]",< 130 nM,< 100 nM,50 to 100%,,"reduction in pain response (formalin assay phase 2) ([1]; 75 mg/kg, oral route): 17%; reduction in pain response (formalin assay, phase 1) ([1]; 75 mg/kg, oral route): 14%; effect in the tactile allodynia test ([2]; 30 mg/kg intraperitoneal, measured 30-60 minutes post dose): no significant effect"
"O=S(=O)(Nc1nccs1)c1cc(Cl)c(Oc2ccccc2-c2cnn3c2NCCC3)cc1F [Compound 56, 5-chloro-2-fluoro-4-(2-(4,5,6,7-tetrahydropyrazolo[1,5-a]pyrimidin-3-yl)phenoxy)-N-(thiazol-2-yl)benzenesulfonamide]",500 to 1000 nM,,,> 10000 nM,
"CS(=O)(=O)CCNCCCc1cc(Cl)ccc1Oc1cc(F)c(S(=O)(=O)Nc2cscn2)cc1Cl [Compound 44, 5-chloro-4-(4-chloro-2-(3-((2-(methylsulfonyl)ethyl)amino)propyl)phenoxy)-2-fluoro-N-(thiazol-4-yl)benzenesulfonamide]",,< 100 nM,,> 10000 nM,
"O=S(=O)(Nc1cscn1)c1cc(Cl)c(Oc2ccccc2-c2cnn3c2NCCC3)cc1F [Compound 58, 5-chloro-2-fluoro-4-(2-(4,5,6,7-tetrahydropyrazolo[1,5-a]pyrimidin-3-yl)phenoxy)-N-(thiazol-4-yl)benzenesulfonamide]",1000 to 20000 nM,1000 to 10000 nM,,> 10000 nM,
"C[C@@H](NC(=O)c1cc(-c2cc(Cl)ccc2Oc2cc(F)c(S(=O)(=O)Nc3ncns3)cc2Cl)ccn1)C(=O)O [Compound 6, (R)-2-(4-(2-(4-(N-(1,2,4-thiadiazol-5-yl)sulfamoyl)-2-chloro-5-fluorophenoxy)-5-chlorophenyl)picolinamido)propanoic acid]",130 to 1000 nM,< 100 nM,25 to 50%,,
